# Test system: GLP1
# Test: GLP1 production induced by treatment with bile acids (immunofluorescence staining of TGR5 and GLP1 in CCL-241 cells)
# Assay type: cell-based
# Conditions: CCL-241 human small intestinal normal epithelial cells; 100 μM bile acid; compared to wild type (WT) and DMSO controls; FIG. 13
# Protocol: Several bile acids were tested for their ability to increase production of GLP-1. Without being bound by theory, the inventor believes that compounds which increase the production of GLP-1 provide an anti-diabetic effect.
# CCL-241, a human small intestinal normal epithelial cell were treated with 100 μM of different bile acids and compared to that of wild type (WT) and DMSO treatment as controls. The expression of TGR5 and GLP1 were detected by Immunofluorescence staining.
row,SMILES,GLP1-promotion effect (expression of GLP1 detected by immunofluorescence staining)
1,"C[C@H](CCC(=O)NCCS(=O)(=O)[O-])[C@H]1CC[C@H]2[C@@H]3C[C@H](O)[C@@H]4C[C@H](O)CC[C@]4(C)[C@H]3CC[C@]12C.[Na+] [THDCA, Taurohyodeoxycholic acid]",strongest GLP1-promotion effect
2,"C[C@H](CCC(=O)NCC(=O)O)[C@H]1CC[C@H]2[C@@H]3C[C@H](O)[C@@H]4C[C@H](O)CC[C@]4(C)[C@H]3CC[C@]12C [GHDCA, Glycohyodeoxycholic acid]",strongest GLP1-promotion effect
3,"C[C@H](CCC(=O)O)[C@H]1CC[C@H]2[C@@H]3[C@H](O)[C@H](O)[C@@H]4C[C@H](O)CC[C@]4(C)[C@H]3CC[C@]12C [HCA, Hyocholic acid]",strongest GLP1-promotion effect
4,C[C@H](CCC(=O)O)[C@H]1CC[C@H]2[C@@H]3CC[C@@H]4C[C@H](O)CC[C@]4(C)[C@H]3C[C@H](O)[C@]12C [DCA],substantial GLP-1 promotion effect
5,O=C(O)C(Cl)(Cl)Cl [TCA],substantial GLP-1 promotion effect
6,"C[C@H](CCC(=O)O)[C@H]1CC[C@H]2[C@@H]3C[C@H](O)[C@@H]4C[C@H](O)CC[C@]4(C)[C@H]3CC[C@]12C [HDCA, Hyodeoxycholic acid]",strongest GLP1-promotion effect

# From patent US20210116467A1, “DIABETES-RELATED BIOMARKERS AND TREATMENT OF DIABETES-RELATED CONDITIONS” (priority 2015, published 2021)
